Measured values published in PubChem BioAssay (NCI).
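Five concentrations, 48 hours, 96-well plates. GI50 marks 50% less growth. TGI marks complete inhibition of growth.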

What was measured:
Experiment in all cases: NCI tumour cell line growth inhibition, 48 h
RPMI-8226 leukemia = test system: RPMI-8226 leukemia
MALME-3M melanoma = test system: MALME-3M melanoma
MCF7 breast = test system: MCF7 breast
SK-MEL-2 melanoma = test system: SK-MEL-2 melanoma
HT29 colon = test system: HT29 colon
OVCAR-3 ovarian = test system: OVCAR-3 ovarian
BT-549 breast = test system: BT-549 breast
SF-268 CNS = test system: SF-268 CNS
LOX IMVI melanoma = test system: LOX IMVI melanoma
TK-10 renal = test system: TK-10 renal
SF-539 CNS = test system: SF-539 CNS
MOLT-4 leukemia = test system: MOLT-4 leukemia
SK-OV-3 ovarian = test system: SK-OV-3 ovarian
SNB-75 CNS = test system: SNB-75 CNS
HCT-15 colon = test system: HCT-15 colon
SF-295 CNS = test system: SF-295 CNS
HOP-62 NSCLC = test system: HOP-62 NSCLC
NCI/ADR-RES ovarian = test system: NCI/ADR-RES ovarian
NCI-H522 lung = test system: NCI-H522 lung
MDA-MB-231 breast = test system: MDA-MB-231 breast
PC-3 prostate = test system: PC-3 prostate
U251 CNS = test system: U251 CNS
SNB-19 CNS = test system: SNB-19 CNS
NCI-H23 lung = test system: NCI-H23 lung
NCI-H460 lung = test system: NCI-H460 lung
MDA-MB-435 = test system: MDA-MB-435
RXF 393 renal = test system: RXF 393 renal
T-47D breast = test system: T-47D breast
HL-60(TB) leukemia = test system: HL-60(TB) leukemia
ACHN renal = test system: ACHN renal
HOP-92 NSCLC = test system: HOP-92 NSCLC
COLO 205 colon = test system: COLO 205 colon
A549 NSCLC = test system: A549 NSCLC
UACC-62 melanoma = test system: UACC-62 melanoma
HCC-2998 colon = test system: HCC-2998 colon
UO-31 renal = test system: UO-31 renal
KM12 colon = test system: KM12 colon
SK-MEL-28 melanoma = test system: SK-MEL-28 melanoma
UACC-257 melanoma = test system: UACC-257 melanoma
OVCAR-8 ovarian = test system: OVCAR-8 ovarian
786-0 renal = test system: 786-0 renal
OVCAR-4 ovarian = test system: OVCAR-4 ovarian
EKVX NSCLC = test system: EKVX NSCLC
SN12C renal = test system: SN12C renal
HS 578T breast = test system: HS 578T breast
SK-MEL-5 melanoma = test system: SK-MEL-5 melanoma
DU-145 prostate = test system: DU-145 prostate
K-562 leukemia = test system: K-562 leukemia
HCT-116 colon = test system: HCT-116 colon
NCI-H226 lung = test system: NCI-H226 lung
OVCAR-5 ovarian = test system: OVCAR-5 ovarian
IGROV1 ovarian = test system: IGROV1 ovarian
SW-620 colon = test system: SW-620 colon
CAKI-1 renal = test system: CAKI-1 renal

## Nc1c(C(=O)N/N=C/c2ccco2)cnn1-c1ccnc2c(C(F)(F)F)cccc12
RPMI-8226 leukemia
  GI50: 19.9 µM
  TGI: 54.2 µM
MALME-3M melanoma
  GI50: 73.3 µM
  TGI: > 100 µM
MCF7 breast
  GI50: 28 µM
  TGI: 65.4 µM
SK-MEL-2 melanoma
  GI50: 57.4 µM
  TGI: > 100 µM
HT29 colon
  GI50: 19.8 µM
  TGI: 38.8 µM
OVCAR-3 ovarian
  GI50: 17.8 µM
  TGI: 39 µM
BT-549 breast
  GI50: 18.2 µM
  TGI: 40.7 µM
SF-268 CNS
  GI50: 31.6 µM
  TGI: 91.6 µM
LOX IMVI melanoma
  GI50: 17.4 µM
  TGI: 31.2 µM
TK-10 renal
  GI50: 55.9 µM
  TGI: > 100 µM
SF-539 CNS
  GI50: 19.4 µM
  TGI: 41.2 µM
MOLT-4 leukemia
  GI50: 23.9 µM
  TGI: 63.5 µM
SK-OV-3 ovarian
  GI50: 86.4 µM
  TGI: > 100 µM
SNB-75 CNS
  GI50: 28.1 µM
  TGI: 97.7 µM
HCT-15 colon
  GI50: 18.5 µM
  TGI: 33.1 µM
SF-295 CNS
  GI50: 38.7 µM
  TGI: > 100 µM
HOP-62 NSCLC
  GI50: 36.5 µM
  TGI: > 100 µM
NCI/ADR-RES ovarian
  GI50: 20.6 µM
  TGI: 41.5 µM
NCI-H522 lung
  GI50: 29.5 µM
  TGI: > 100 µM
MDA-MB-231 breast
  GI50: 17.3 µM
  TGI: 38.9 µM
PC-3 prostate
  GI50: 19.3 µM
  TGI: 49.1 µM
U251 CNS
  GI50: 20.5 µM
  TGI: 40.5 µM
SNB-19 CNS
  GI50: 40.3 µM
  TGI: > 100 µM
NCI-H23 lung
  GI50: 35 µM
  TGI: > 100 µM
NCI-H460 lung
  GI50: 48.1 µM
  TGI: > 100 µM
MDA-MB-435
  GI50: 26.2 µM
  TGI: 75.3 µM
RXF 393 renal
  GI50: 22.7 µM
  TGI: 43.7 µM
T-47D breast
  GI50: 39.5 µM
  TGI: > 100 µM
HL-60(TB) leukemia
  GI50: 25.8 µM
  TGI: 49.5 µM
ACHN renal
  GI50: 38.6 µM
  TGI: > 100 µM
HOP-92 NSCLC
  GI50: 25.9 µM
  TGI: 80.8 µM
COLO 205 colon
  GI50: 24.9 µM
  TGI: 53.8 µM
A549 NSCLC
  GI50: > 100 µM
  TGI: > 100 µM
UACC-62 melanoma
  GI50: 35.9 µM
  TGI: > 100 µM
HCC-2998 colon
  GI50: 22.8 µM
  TGI: 48.5 µM
UO-31 renal
  GI50: 16.9 µM
  TGI: 33.7 µM
KM12 colon
  GI50: 31.9 µM
  TGI: 75 µM
SK-MEL-28 melanoma
  GI50: 19.1 µM
  TGI: 36.8 µM
UACC-257 melanoma
  GI50: 95.3 µM
  TGI: > 100 µM
OVCAR-8 ovarian
  GI50: 24.2 µM
  TGI: 57.1 µM
786-0 renal
  GI50: 43.6 µM
  TGI: > 100 µM
OVCAR-4 ovarian
  GI50: 33.5 µM
  TGI: > 100 µM
EKVX NSCLC
  GI50: 82.2 µM
  TGI: > 100 µM
SN12C renal
  GI50: 20.2 µM
  TGI: 55 µM
HS 578T breast
  GI50: 35.4 µM
  TGI: 89.1 µM
SK-MEL-5 melanoma
  GI50: 30 µM
  TGI: > 100 µM
DU-145 prostate
  GI50: 18.3 µM
  TGI: 36.5 µM
K-562 leukemia
  GI50: 24.2 µM
  TGI: 49.1 µM
HCT-116 colon
  GI50: 18.2 µM
  TGI: 32.2 µM
NCI-H226 lung
  GI50: 88.8 µM
  TGI: > 100 µM
OVCAR-5 ovarian
  GI50: 23.3 µM
  TGI: 61.6 µM
IGROV1 ovarian
  GI50: 25.4 µM
  TGI: 80.1 µM
SW-620 colon
  GI50: 19.9 µM
  TGI: 37.3 µM
CAKI-1 renal
  GI50: 37.5 µM
  TGI: > 100 µM
